Each molecule was assayed against T1, human M4 muscarinic acetylcholine receptor (Homo sapiens, UniProt P08173) (assay: human FLIPR-based M4 PAM assay (Ca2+ dye fluorescence, CHO-K1 cells with human M4 receptor and Gαqi5)). Settings: inflection point (IP) of dose response curve, FLIPR Tetra, acetylcholine at 20% of maximum response.
T1 construct: expressed in transfected cells; host or cells: CHO-K1
T1 sequence (P08173 1-479): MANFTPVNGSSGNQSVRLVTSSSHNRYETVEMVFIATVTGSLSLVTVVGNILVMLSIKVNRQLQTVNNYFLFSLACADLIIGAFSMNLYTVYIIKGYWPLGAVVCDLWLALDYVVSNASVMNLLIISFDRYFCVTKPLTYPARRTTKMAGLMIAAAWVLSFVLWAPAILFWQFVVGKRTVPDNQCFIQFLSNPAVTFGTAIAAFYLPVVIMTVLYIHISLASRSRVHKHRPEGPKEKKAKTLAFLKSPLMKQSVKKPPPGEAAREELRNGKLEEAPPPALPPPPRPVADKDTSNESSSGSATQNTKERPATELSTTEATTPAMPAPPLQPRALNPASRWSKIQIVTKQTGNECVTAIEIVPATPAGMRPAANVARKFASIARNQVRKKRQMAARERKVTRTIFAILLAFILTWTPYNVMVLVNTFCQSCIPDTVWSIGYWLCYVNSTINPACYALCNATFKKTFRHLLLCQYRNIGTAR
Format: cell-based
Procedure: In a typical experiment the M4 muscarinic acetylcholine receptor modulating activity of the compounds of the present invention was determined in accordance with the following experimental method. CHO-K1 cells stably transfected with human M4 receptor and chimeric G-protein Gαqi5 (Coward P, et al., Analytical Biochemistry, 270:242-248 (1999)) are thawed from liquid N2 storage, resuspended in growth medium, plated in black, clear bottom 384 well plates, and incubated 16-20 hours at 37° C., 5% CO2. On the day of assay, growth medium is removed, the cells are washed 2 times with wash buffer, and cells are incubated in dye loading buffer at 37° C., 5% CO2 for ˜1 hour. Following dye loading the cell plates are placed in a FLIPR Tetra instrument and while monitoring dye fluorescence (excitation […]), 10 uL of test substance at increasing concentrations is added, and fluorescence values are recorded for 4 min. Next, 10 uL of acetylcholine is added (final concentration calculated so as to achieve 20% of the maximum acetycholine response), and the fluorescence reading is continued for 3.5 min. In some cases, a third addition of acetylcholine (final concentration calculated to achieve 70% of the maximal acetylcholine response) is performed. The resulting dose response curves are fit to a 4 parameter logistic equation and the final result is determined as the inflection point (IP) of the curve
CHO-K1 cells stably transfected with human M4 receptor and chimeric G-protein Gαqi5 are thawed from liquid N2 storage, resuspended in growth medium, plated in black, clear bottom 384 well plates, and incubated 16-20 hours at 37° C., 5% CO2.
On the day of assay, growth medium is removed, the cells are washed 2 times with wash buffer, and cells are incubated in dye loading buffer at 37° C., 5% CO2 for ˜1 h. Following dye loading the cell plates are placed in a FLIPR Tetra instrument and while monitoring dye fluorescence ([…]), 10 uL of test substance at increasing concentrations is added, and fluorescence values are recorded for 4 min. Next, 10 uL of acetylcholine is added (final concentration calculated so as to achieve 20% of the maximum acetycholine response), and the fluorescence reading is continued for 3.5 min. In some cases, a third addition of acetylcholine (final concentration calculated to achieve 70% of the maximal acetylcholine response) is performed.

SMILES	EC50
Cc1c(N2CCC(OCC3(C)CC3)C3CC32)nc2c(c1C)C(=O)N1CCC(C)(O)CC21 (stereo not shown) [Example 25, 9-hydroxy-3,4,9-trimethyl-2-(5-((1-methylcyclopropyl)methoxy)-2-azabicyclo[4.1.0]heptan-2-yl)-8,9,10,10a-tetrahydropyrido[2,3-a]indolizin-5(7H)-one]	0.195 µM
Cc1c(N2CCC(OCC3(C)CC3)C3CC32)nc2c(c1C)C(=O)N1CCOCC21 (stereo not shown) [Example 26, 3,4-dimethyl-2-(5-((1-methylcyclopropyl)methoxy)-2-azabicyclo[4.1.0]heptan-2-yl)-7,8,10,10a-tetrahydro-5H-pyrido[2′,3′:3,4]pyrrolo[2,1-c][1,4]oxazin-5-one]	0.153 µM
Cc1c(N2CCC(Oc3ccc4c(c3)COC4)C3CC32)nc2c(c1C)C(=O)NC2 (stereo not shown) [Example 27, 2-(5-((1,3-dihydroisobenzofuran-5-yl)oxy)-2-azabicyclo[4.1.0]heptan-2-yl)-3,4-dimethyl-6,7-dihydro-5H-pyrrolo[3,4-b]pyridin-5-one]	0.166 µM
Cc1cc2c(nc1N1CCC(Oc3ccc4c(c3)COC4)C3CC31)CNC2=O (stereo not shown) [Example 28, 2-(5-((1,3-dihydroisobenzofuran-5-yl)oxy)-2-azabicyclo[4.1.0]heptan-2-yl)-3-methyl-6,7-dihydro-5H-pyrrolo[3,4-b]pyridin-5-one]	0.076 µM
Cc1cc2c(nc1N1CCC(Oc3ccc4c(c3)COC4)C3CC31)CNC2=O (stereo not shown) [Example 29, 2-(5-((1,3-dihydroisobenzofuran-5-yl)oxy)-2-azabicyclo[4.1.0]heptan-2-yl)-3-methyl-6,7-dihydro-5H-pyrrolo[3,4-b]pyridin-5-one]	0.043 µM

Second part, the molecule after the results:

EC50	SMILES
0.727 µM	Cc1cc2c(nc1N1CCC(Oc3ccc4c(c3)COC4)C3CC31)CNC2=O (stereo not shown) [Example 30, 2-(5-((1,3-dihydroisobenzofuran-5-yl)oxy)-2-azabicyclo[4.1.0]heptan-2-yl)-3-methyl-6,7-dihydro-5H-pyrrolo[3,4-b]pyridin-5-one]
0.072 µM	Cc1cc2c(nc1N1CCC(Oc3ccc4c(c3)CCOC4)C3CC31)CNC2=O (stereo not shown) [Example 31, 2-(5-(isochroman-6-yloxy)-2-azabicyclo[4.1.0]heptan-2-yl)-3-methyl-6,7-dihydro-5H-pyrrolo[3,4-b]pyridin-5-one]
0.281 µM	Cc1c(N2CCC(Oc3ccc4c(c3)COCC4)C3CC32)nc2c(c1C)C(=O)NC2 (stereo not shown) [Example 35, 2-(5-(isochroman-7-yloxy)-2-azabicyclo[4.1.0]heptan-2-yl)-3,4-dimethyl-6,7-dihydro-5H-pyrrolo[3,4-b]pyridin-5-one]
0.156 µM	Cc1cc2c(nc1N1CCC(Oc3ccc4c(c3)COCC4)C3CC31)CNC2=O (stereo not shown) [Example 36, 2-(5-(isochroman-7-yloxy)-2-azabicyclo[4.1.0]heptan-2-yl)-3-methyl-6,7-dihydro-5H-pyrrolo[3,4-b]pyridin-5-one]
0.143 µM	Cc1c(N2CCC(Oc3ccc4c(c3)COC4)C3CC32)nc2c(c1C)C(=O)N(C)C2 (stereo not shown) [Example 37, 2-(5-((1,3-dihydroisobenzofuran-5-yl)oxy)-2-azabicyclo[4.1.0]heptan-2-yl)-3,4,6-trimethyl-6,7-dihydro-5H-pyrrolo[3,4-b]pyridin-5-one]

From patent publication US10945771B2, “Azabicyclo[4.1.0]heptane allosteric modulators of the M4 muscarinic acetylcholine receptor” (Merck Sharp & Dohme Corp., priority 2017, dated 2021)
